Experimental data as given in patent publication US20230416245A1, “ADENOSINE ANALOGS FOR THE TREATMENT OF DISEASE” (BIOINTERVENE, INC., priority 2020, published 2023).

Legend:
[1] = target: T1, human adenosine A3 receptor (Homo sapiens (Human), UniProt P0DMS8); experiment: Adenosine receptor binding assay ([125I]-AB-MECA competition); conditions: inhibition of 0.15 nM [125I]-AB-MECA binding, membranes of cells expressing human A3 receptor; read-out: hA3 Ki: Ki
From the text: Example 30: Adenosine Receptor Binding Assay
Materials and Reference Compounds: [^125I]-AB-MECA and [^3H]CCPA are both obtained from Amersham Biosciences (Little Chalfont, UK). IB-MECA are obtained from Tocris (Bristol, UK) and N6-cyclopentyl adenosine (CPA) is obtained from Sigma-Alrich (Poole, UK). Cell culture media, G418 and hygromycin are obtained from Invitrogen (Paisley, UK). Fetal calf serum is obtained from Perbio Science (Cheshire, UK). All other reagents are obtained from Fisher Chemicals (Loughborough, UK).
The method followed is that of Yates L, Clark J H, Martin T J, James S, Broadley K J, Kidd E J. Radioligand binding and functional responses of ligands for human recombinant adenosine A3 receptors. Auton Autacoid Pharmacol. 2006; 26(2):191-200. Cells stably transfected with the human adenosine A3 or A1 receptor are grown in Dulbecco's modified Eagles medium with nutrient mixture F12 containing NaHCO3 and Glutamax. Media is supplemented with 10% fetal calf serum, geneticin (G418; 0.67 mg/mL), hygromycin (500 μg/mL) and adenosine deaminase (1 U/mL). Cells are maintained at 37° C. with 5% CO2 in air. Cells are harvested and homogenized in ice-cold Tris buffer [50 mM Tris, 150 mM NaCl, 1 mM ethylenediaminetetraacetic acid (EDTA), pH 7.4] supplemented with the peptidase inhibitors, 4-(2-aminoethyl)benzenesulfonylfluoride (1 mM) and bacitracin (0.1 mg/mL), using a Polytron homogenizer (3×10 s bursts). The homogenate was spun for 10 min (4° C.) at 500 g. The supernatant is retained and the pellet is re-suspended in the buffer, homogenized and spun as above. The combined supernatants are centrifuged for 15 min (4° C.) at 48,000 g. The resultant pellet is re-suspended in the buffer and centrifuged for a second time at 48,000 g. The membrane pellet is then suspended in Tris buffer containing no peptidase inhibitors or adenosine deaminase and stored at −80° C. at a protein concentration of 1 mg/mL.
Binding Assays: Radioligand-binding assays were performed using the adenosine A3 receptor agonist [^125I]-AB-MECA and the A1 receptor agonist [^3H]CCPA. Binding assays were conducted in a total volume of 100 μL containing a 50 mM Tris, pH 7.4 buffer with or without 10 mM MgCl2, 20 μg membranes and either 0.15 nM [^125I]-AB-MECA (for the A3 receptor) or 1 nM [^3H]CCPA (for the A1 receptor). Assays were conducted at room temperature for 60 min (A1 receptor) or 120 min (A3 receptor) and terminated by the addition of 2 ml of ice-cold wash buffer (50 mM Tris, pH 7.4 with or without 10 mM MgCl2) and rapid filtration over 0.03% polyethylenimine-treated Whatman GF/C filters using a Brandel cell harvester (Semat International Ltd., St Albans, UK). Filters were then washed three times with 2 ml of ice-cold buffer. The filter-bound radioactivity were counted using a Compugamma counter (LKB Wallac, Turku, Finland). Competition experiments were performed to investigate the ability of reference compounds and embodiments of the invention to inhibit [^125I]-AB-MECA binding. Non-specific binding were determined using the respective compound at its highest concentration.
Data Analysis: The Kd and Bmax values for binding data were calculated based upon the molar amounts of bound and free [^125I]-AB-MECA. […] IC50 and Ki values and Hill slopes for inhibition of the radioligand binding by the compounds of the invention were calculated from the ligand competition curves using the Excel spreadsheet and the Kd value calculated for either [^125I]-AB-MECA or [^3H]CCPA. The results were expressed as a percent of control specific binding and as a percent inhibition of control specific binding obtained in the presence of the compounds of the invention. The IC50 values (concentration causing a half-maximal inhibition of control specific binding) and Hill coefficients (nH) were determined by non-linear regression analysis of the competition curves generated with mean replicate values using Hill equation curve fitting: […]

[2] = target: T1, human adenosine A3 receptor; experiment: Intracellular cAMP levels (inhibition of forskolin-stimulated cAMP production); assay type: cell-based
From the text: Example 31: Intracellular cAMP Levels
The method followed is that published in Yates L, Clark J H, Martin T J, James S, Broadley K J, Kidd E J. Radioligand binding and functional responses of ligands for human recombinant adenosine A3 receptors. Auton Autacoid Pharmacol. 2006 April; 26(2):191-200.
Materials and Cell Culture: Adenosine deaminase was obtained from Roche (Lewes, UK). Forskolin was obtained from Sigma-Aldrich (Poole, UK). The sources of other materials are provided above in Example 1. CHO-K1 cells stably transfected with the human adenosine A3 receptor were grown in Dulbecco's modified Eagles medium with nutrient mixture F12 containing NaHCO3 and Glutamax. Media was supplemented with 10% fetal calf serum, geneticin (G418; 0.67 mg/mL), hygromycin (500 μg/mL) and adenosine deaminase (1 U/mL). Cells were maintained at 37° C. with 5% CO2 in air.
cAMP Measurements: Intracellular cAMP production was measured directly using a non-acetylation cAMP enzyme immunoassay (Amersham Biosciences, Little Chalfont, UK). Cultured CHO cells expressing human adenosine A3 receptors were allowed to plate overnight in 96-well plates in culture medium containing adenosine deaminase. Twenty-four hours later, they were incubated with adenosine analogues or compounds of the invention (0.1 nM-1 μM) for 5 min at 37° C., followed by incubation with forskolin (10 μM) for 10 min. The cells were then lysed with 200 μL of lysis reagent 1 provided with the kit for 10 min to release intracellular cAMP. Aliquots of the supernatants were then transferred to a 96-well microtitre plate coated with donkey anti-rabbit IgG; 100-μL cAMP standards (12.5-3200 fmol/well) were also added to the microtitre plate; 100 μL of rabbit anti-cAMP antibody was added to all wells and incubated at 2-5° C. for 2 h. The antiserum was made up in lysis reagent 2, which sequesters the key component in lysis reagent 1 and ensures that cAMP is free for subsequent analysis. Then 50 μL of cAMP peroxidase conjugate was added to all wells and left to incubate for 60 min at 2-5° C. to allow competition for the antibody between the un-labelled and horse radish peroxidase (HRP)-labelled cAMP. Wells were then washed with buffer and 150 μL of enzyme substrate containing 3,3′,5,5′-tetramethylbenzidine/hydrogen peroxide in 20% (v/v) dimethylformamide was added to each well and left to incubate for 60 min on a Titramax 100 microtitre plate shaker (Heidolph Instruments, Schwabach, Germany) at room temperature for color development. The reaction was stopped by the addition of 100 μL of 1 M sulfuric acid and the optical density (OD) read at 450 nm on a spectrophotometric MRX microplate reader (Dynex Technologies, Chantilly, VA, USA).
Analyses: Each sample/standard was analyzed in duplicate and the resulting OD values averaged. The percent bound (B/Bo) for each standard and sample was calculated using the following relationship: […]
where B is the specific OD for standard/sample and Bo is the specific OD for the zero standard. A standard curve was generated by plotting % B/Bo as a function of the log fmol cAMP standard per well. The fmol per well value for cAMP in each sample was then read from the graph. The results are expressed as a percent of control agonist response: (measured response/control response)*100 in the presence of the compounds of the invention. Concentration-response curves for inhibition of cAMP production were constructed for all compounds of the invention and reference compounds. The EC50 values (concentration producing a half-maximal response) were determined by non-linear regression analysis of the concentration-response curves generated with mean replicate values using Hill equation curve fitting, according to the equation:
where Y=response, A=left asymptote of the curve, D=right asymptote of the curve, C=compound concentration, and C50=EC50, and nH=slope factor. […]

ADORA3 = ADORA3 (Homo sapiens (Human), UniProt P0DMS8); experiment: Intracellular calcium release assay (FLIPR); assay type: cell-based
Method: Example 32: Intracellular Calcium Release Assay
Cell Culture: The table below lists the cell lines used that stably express the 4 subtypes of adenosine receptors, along with the growth medium used for each:
For experiments with the ADORA1- and ADORA3-expressing cells, the medium was aspirated and the cells washed twice with 10 mL DPBS. Two mL of trypsin was added and incubated at 37° C. for 1 minute. Then 10 mL of platting media was added to terminate the digestion and 1 mL of the solution was taken out for cell counting. ADORA2A- and ADORA2B-expressing cells were thawed rapidly in a 37° C. water bath. Cell suspensions were transferred to 50 mL conical tubes. Plating media was added to the 10 mL mark and then 1 mL taken out for cell counting. The 50 mL tubes containing the various types of cells were centrifuged at 1000 g. Then the supernatants were aspirated, being careful not to aspirate the cells. The cell pellets were resuspended in 3-5 mL platting media, then 0.5 mL was taken out for cell counting. Then the cell suspension was diluted to 1×10^6 cells/mL (20,000 cells per 20 μL per well) in platting medium, and cells were seeded into 384-well cell plates (Greiner-781946). The 384-well cell plate was placed in a 37° C./5% CO2 incubator (Thermo-371, Thermo Scientific) for 16-20 hours.
Preparation of the intracellular calcium imaging agent (Fluo-4 Direct™ Calcium Assay Kit, Invitrogen-F10471, Thermo Scientific): One mL of FLIPR Assay Buffer was added to 77 mg probenecid to make a 250 mM solution, which was used fresh for each day. One vial of Fluo-4 Direct™ crystals was thawed and 10 mL of FLIPR Assay Buffer was added to the vial. 0.2 mL of probenecid was added to each 10 mL vial of Fluo-Direct™ solution, such that the final assay concentration was 2.5 mM. It was vortexed, left to stand >5 min and protected from light. The dye was prepared fresh each day.
Compound Preparation: Compound plates were prepared as follows. First, the test compound was diluted to prepare a 2 mM solution and then 10-point 3-fold serial dilutions were made using ECHO (ECHO 555, LabCyte), then 900 nL was transferred to the compound plate. For all targets, the final top concentration of the test compound was […]. For agonist reference compounds, 10-point and 3-fold serial dilutions were made, then 900 nL was transferred to the assay plate. Then 30 μL of assay buffer was added to the compound plate and then the plate was centrifuged at 1000 rpm for 1 min.
FLIPR Assay: Cell plates were removed from the incubator, to which were added 20 μL 2×Fluo-4 Direct™ solution, then the plates were reincubated in a 5% CO2, 37° C. incubator for 50 min and at RT for 10 min. To run the protocol on the Fluorescent Imaging Plate Reader (FLIPR) TETRA (MD-FT0249, Molecular Devices, Inc.), 10 μL of assay buffer was transferred from the 384-well plate (Greiner-781280) to the cell plates and then the fluorescence signal was read. Then 10 μL of compound solution was transferred from the compound plate to the cell plates and the fluorescence signal was read. The “Max-Min” was calculated, starting from Read 91 to the maximum allowed. For agonists, activation %=(RLU−LC)/(HC−LC)*100, based on the following: RLU=relative light unit, 91 to maximum allowed signal; HC=average signal of the high concentration of agonist; LC=average signal of DMSO well. The data were fitted using GraphPad Prism 5, using the model “log(agonist) vs. response—Variable slope” to determine the EC50 value. The receptor efficacy of the test compound relative to the agonist NECA was calculated as a percentage (%) of the response to […]. Table 10 includes EC50 values for compounds described herein.

T1 sequence (P0DMS8 whole entry): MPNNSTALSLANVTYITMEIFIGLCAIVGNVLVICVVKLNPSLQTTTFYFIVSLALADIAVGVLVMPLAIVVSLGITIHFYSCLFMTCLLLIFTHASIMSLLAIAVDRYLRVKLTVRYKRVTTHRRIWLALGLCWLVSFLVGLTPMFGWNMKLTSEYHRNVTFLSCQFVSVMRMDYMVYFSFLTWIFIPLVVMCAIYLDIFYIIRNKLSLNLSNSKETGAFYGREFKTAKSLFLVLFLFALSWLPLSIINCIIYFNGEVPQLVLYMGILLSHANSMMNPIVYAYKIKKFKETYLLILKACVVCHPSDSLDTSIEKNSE
Chain of ADORA3 (P0DMS8 whole entry): as above

SMILES | Ki [1] [nM] | further results
CCNc1cc(Cl)nc2c1ncn2[C@H]1[C@H](O)[C@H](O)[C@]2(C(=O)NC)C[C@H]12 [Compound 59, (1S,2R,3S,4R,5S)-4-(5-chloro-7-(ethylamino)-3H-imidazo[4,5-b]pyridin-3-yl)-2,3-dihydroxy-N-methylbicyclo[3.1.0]hexane-1-carboxamide] |  | EC50 ([2]; CHO cells expressing human adenosine A3 receptors, forskolin 10 μM): 0.11 nM; CAMP Efficacy (%) ([2]; maximal response as percentage of the response produced by 100 nM IB-MECA): 106.95%; EC50 (ADORA3; CHO-K1 cells, Fluo-4, top concentration 10 μM, read-out: Cell Calcium Assay EC50): 1.2 nM; Cell Calcium Efficacy (%) (ADORA3; percentage of the response to NECA): 103.9%
O[C@@H]1[C@H](O)[C@@H]2C[C@@H]2[C@H]1n1cnc2c(NCC3CCC3)cc(Cl)nc21 [Compound 67, (1R,2R,3S,4R,5S)-4-(5-chloro-7-((cyclobutylmethyl)amino)-3H-imidazo[4,5-b]pyridin-3-yl)bicyclo[3.1.0]hexane-2,3-diol] | 94.4 | 
CCNC(=O)[C@@]12C[C@@H]1[C@@H](n1cnc3c(NCC)cc(Cl)nc31)[C@H](O)[C@@H]2O [Compound 69, (1S,2R,3S,4R,5S)-4-(5-chloro-7-(ethylamino)-3H-imidazo[4,5-b]pyridin-3-yl)-N-ethyl-2,3-dihydroxybicyclo[3.1.0]hexane-1-carboxamide] | 1.68 | 
CCNc1c(Cl)c(Cl)nc2c1ncn2[C@H]1[C@H](O)[C@H](O)[C@@H]2C[C@@H]21 [Compound 71, (1R,2R,3S,4R,5S)-4-(5,6-dichloro-7-(ethylamino)-3H-imidazo[4,5-b]pyridin-3-yl)bicyclo[3.1.0]hexane-2,3-diol] | 456 | 

Further lines, with some results ahead:

Ki [1] [nM] | SMILES | further results
0.64 | CCCNc1cc(Cl)nc2c1ncn2[C@H]1[C@H](O)[C@H](O)C2(C(=O)NC)C[C@H]12 (stereo in doubt) [Compound 64, (1S,2R,3S,4R,5S)-4-(5-chloro-7-(propylamino) 3H-imidazo[4,5-b]pyridin-3-yl)-2,3-dihydroxy-N-methylbicyclo[3.1.0]hexane-1-carboxamide] | 
3.49 | CNC(=O)C12C[C@@H]1[C@@H](n1cnc3c(NCC4CCC4)cc(Cl)nc31)[C@H](O)[C@@H]2O (stereo in doubt) [Compound 65, (1S,2R,3S,4R,5S)-4-(5-chloro-7-((cyclobutylmethyl)amino)-3H-imidazo[4,5-b]pyridin-3-yl)-2,3-dihydroxy-N-methylbicyclo[3.1.0]hexane-1-carboxamide] | 
126 | CCCNc1cc(Cl)nc2c1ncn2[C@H]1[C@H](O)[C@H](O)[C@@H]2C[C@@H]21 [Compound 66] | 
